Source: patent US20100261736A1, “SUBSTITUTED BICYCLIC HETEROARYL COMPOUNDS FOR THE TREATMENT OF CARDIOVASCULAR DISEASE” (priority 2007, published 2010)

Experiments:
[1] = non-enzymatic transformation to inactive metabolite 6-keto-prostaglandin-F1alpha; cited from earlier work
[2] = target: T1, Prostacyclin receptors (IP receptors) of human thrombocyte membranes (Homo sapiens, UniProt P43119); test: Binding to prostacyclin receptors (IP receptors) of human thrombocyte membranes, 3H-Iloprost displacement; conditions: 3 nM 3H-Iloprost, 60 min, room temperature
T1 construct: Thrombocyte membranes are obtained by centrifuging 50 ml of human blood
T1 sequence (P43119 whole entry): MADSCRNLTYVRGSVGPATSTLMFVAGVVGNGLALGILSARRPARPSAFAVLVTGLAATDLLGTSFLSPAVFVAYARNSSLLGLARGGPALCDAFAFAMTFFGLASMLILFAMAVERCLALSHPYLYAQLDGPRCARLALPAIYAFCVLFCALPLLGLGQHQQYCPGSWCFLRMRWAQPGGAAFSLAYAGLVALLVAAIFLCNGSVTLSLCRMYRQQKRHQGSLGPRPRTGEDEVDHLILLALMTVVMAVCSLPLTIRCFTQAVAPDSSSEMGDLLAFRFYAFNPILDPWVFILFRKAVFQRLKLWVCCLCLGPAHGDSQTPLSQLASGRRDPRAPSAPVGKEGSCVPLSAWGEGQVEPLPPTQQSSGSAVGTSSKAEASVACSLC
Protocol: B-1. Studies of Binding to Prostacyclin Receptors (IP Receptors) of Human Thrombocyte Membranes
Thrombocyte membranes are obtained by centrifuging 50 ml of human blood (Buffy coats with CDP Stabilizer, from Maco Pharma, Langen) for 20 min at 160×g. Remove the supernatant (platelet-rich plasma, PRP) and then centrifuge again at 2000×g for 10 min at room temperature. Resuspend the sediment in 50 mM tris(hydroxymethyl)aminomethane, which has been adjusted to a pH of 7.4 with 1 N hydrochloric acid, and store at −20° C. overnight. On the next day, centrifuge the suspension at 80 000×g and 4° C. for 30 min. Discard the supernatant. Resuspend the sediment in 50 mM tris(hydroxymethyl)aminomethane/hydrochloric acid, 0.25 mM ethylene diamine tetraacetic acid (EDTA), pH 7.4, and then centrifuge once again at 80 000×g and 4° C. for 30 min. Take up the membrane sediment in binding buffer (50 mM tris(hydroxymethyl)-aminomethane/hydrochloric acid, 5 mM magnesium chloride, pH 7.4) and store at −70° C. until the binding test.
For the binding test, incubate 3 nM ^3H-Iloprost (592 GBq/mmol, from AmershamBioscience) for 60 min with 300-1000 μg/ml of human thrombocyte membranes per charge (max. 0.2 ml) in the presence of the test substances at room temperature. After stopping, add cold binding buffer to the membranes and wash with 0.1% bovine serum albumin. After adding Ultima Gold Scintillator, quantify the radioactivity bound to the membranes using a scintillation counter. The nonspecific binding is defined as radioactivity in the presence of 1 μM Iloprost (from Cayman Chemical, Ann Arbor) and is as a rule <25% of the bound total radioactivity. The binding data (IC50 values) are determined using the program GraphPad Prism Version 3.02.

Row | Compound | IC50 [2] [µM] | half-life [1]
1 | CCCCC[C@H](O)/C=C/[C@@H]1[C@H]2C/C(=C/CCCC(=O)O)O[C@H]2C[C@H]1O [PGI2] | – | approx. 3 minutes
2 | COc1ccc(-c2c(-c3ccccc3)[nH]c3ncnc(O[C@H](C)CCCCC(=O)O)c23)cc1 [Example 5, (6R)-6-{[5-(4-Methoxyphenyl)-6-phenyl-7H-pyrrolo[2,3-d]pyrimidin-4-yl]oxy}heptanoic acid] | 0.039 | –
3 | COc1ccc(-c2c(-c3ccccc3)oc3cccc(OCCCCCC(=O)O)c23)cc1 [Example 12, 6-{[3-(4-Methoxyphenyl)-2-phenyl-1-benzofuran-4-yl]oxy}hexanoic acid] | 0.984 | –
4 | CCc1ccc(-c2c(-c3ccccc3)sc3ncnc(O[C@H](C)CCCCC(=O)O)c23)cc1 [Example 9, (6R)-6-{[5-(4-ethylphenyl)-6-phenylthieno[2,3-d]pyrimidin-4-yl]oxy}heptanoic acid] | 0.208 | –

Further lines, with some results ahead:

Row | IC50 [2] [µM] | Compound | half-life [1]
5 | 0.039 | CCc1ccc(-c2c(-c3ccccc3)oc3nccc(O[C@H](C)CCCCC(=O)O)c23)cc1 [Example 28, (6R)-6-{[3-(4-ethylphenyl)-2-phenylfuro[2,3-b]pyridin-4-yl]oxy}heptanoic acid] | –
6 | 1.7 | CCc1ccc(-c2c(-c3ccccc3)oc3nccc(OCCOCCC(=O)O)c23)cc1 [Example 29] | –
7 | 0.098 | COc1ccc(-c2c(-c3ccccc3)oc3ccnc(NCC(C)(C)COCC(=O)O)c23)cc1 [Example 19, (3-{[3-(4-Methoxyphenyl)-2-phenylfuro[3,2-c]pyridin-4-yl]amino}-2,2-dimethylpropoxy)acetic acid] | –
8 | 0.035 | CCc1ccc(-c2c(-c3ccccc3)oc3nccc(NCC(C)(C)COCCC(=O)O)c23)cc1 [Example 21, 3-(3-{[3-(4-Ethylphenyl)-2-phenylfuro[2,3-b]pyridin-4-yl]amino}-2,2-dimethylpropoxy)-propanoic acid] | –
